Results on nine compounds are retold here after EP1873150A1, “Fluorinated indoleamides useful as ligands of the ORL-1 receptor” (NIKEM RESEARCH S.R.L., priority 2006, dated 2008).

Experiment [1] concerns the target ORL-1 receptor (Homo sapiens, UniProt P41146). Briefly: ORL-1 receptor binding studies, radioligand [3H]-AcRYYRWK-NH2. As to the method: The receptor binding studies were carried out on 96-well plates; the incubation medium was Tris HCl pH 7.4 (4°C) containing MgCl2 (5 mM), EGTA (0.2 mM), BSA (0.1 %), with a final volume of […], using as radioligand [^3H]-AcRYYRWK-NH2 (Amersham, 103 Ci/mmol). The samples were incubated at 37°C for 120 min. and were then filtered off via Whatman GF/B filters pre-treated with 0.2% polyethylenimine. The filters were washed three times with Tris HCl buffer pH 7.4 (4°C). The radioactivity present on the filters was measured using a Packard Top Count microplate scintillation counter.

The target of experiment [2] is T1, CYP1A2 (Homo sapiens, UniProt P05177).
T1 construct: purchased Gentest Corporation, Woburn, MA (Supersomes); host or cells: baculovirus-insect cells
T1 sequence (P05177 1-516): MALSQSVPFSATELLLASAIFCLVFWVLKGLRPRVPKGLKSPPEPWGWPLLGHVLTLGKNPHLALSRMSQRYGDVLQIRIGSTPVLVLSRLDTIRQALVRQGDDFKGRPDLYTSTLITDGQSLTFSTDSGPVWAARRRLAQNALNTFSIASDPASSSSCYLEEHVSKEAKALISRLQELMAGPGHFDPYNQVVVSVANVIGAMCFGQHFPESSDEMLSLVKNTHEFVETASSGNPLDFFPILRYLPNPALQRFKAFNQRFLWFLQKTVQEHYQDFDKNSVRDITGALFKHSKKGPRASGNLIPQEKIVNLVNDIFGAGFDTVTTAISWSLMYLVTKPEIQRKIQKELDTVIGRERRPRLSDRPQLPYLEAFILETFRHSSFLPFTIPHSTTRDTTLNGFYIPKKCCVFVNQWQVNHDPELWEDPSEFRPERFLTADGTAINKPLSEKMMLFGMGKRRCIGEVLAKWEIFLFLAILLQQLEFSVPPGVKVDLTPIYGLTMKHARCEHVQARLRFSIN
The experiment can be described thus: Interaction with Cytochrome P450 isoenzymes: CYP1A2. The class given is in vitro ADME. To be noted: Supersomes expressing human CYP1A2, substrate CEC, fluorometric; read-out: CYP450 interaction (IC50, uM) 1A2. As to the method: (§1) The assay was performed in a 96-well microtiter plates as described in Stresser et al., Drug Metab. Dispos. 28, 1440 (2000). Microsomes from baculovirus-insect cells (Supersomes, Gentest Corporation, Woburn, MA) expressing human cytochrome P450 isoforms (CYP1A2, CYP2C9, CYP2C19, CYP2D6 and CYP3A4) were utilized. Test compounds or standard inhibitors (dissolved in DMSO or acetonitrile) were serially diluted in a solution containing 16.3 uM NADP^+, 0.83 mM glucose-6-phosphate, 0.83 mM MgCl2, 0.4 U/mL of glucose-6-phosphate dehydrogenase and 0.1 mg/mL microsomal protein prepared from wild-type baculovirus-infected insect cells. Appropriate control wells without inhibitor and without microsomes were also added. The plates were then pre-warmed at 37°C for 10 min, and the reaction was started by adding pre-warmed enzyme/substrate mix (cytochrome P450 isoforms with their specific substrates in a 0.35 M potassium phosphate buffer at pH 7.4). Specific substrates were 3-cyano-7-ethoxycoumarin (CEC) for CYP1A2 and CYP2C19, 7-methoxy-4-trifluoromethylcoumarin (MFC) or dibenzylfluorescein (DBF) for CYP2C9, 3-[2-(N,N-diethyl-N-methylamino)ethyl]-7-methoxy-4-methylcoumarin (AMMC) for CYP2D6 and 7-benzyloxy-4-(trifluoromethyl)-coumarin (BFC) for CYP3A4. Reaction was terminated at various times, depending on the assays, by addition of a 4:1 acetonitrile:0.5 M Tris base solution. Known inhibitors for each isoenzyme (furafylline for CYP1A2, sulfaphenazole for CYP2C9, tranylcypromine for CYP2C19, quinidine for CYP2D6 and ketoconazole for CYP3A4) were tested in all assays as positive controls. Plates were read on a fluorometer (Fluoroskan Ascent, ThermoElectron Corporation, Helsinki, Finland) at the appropriate emission/excitation wavelengths. Median inhibitory concentration (IC50) was determined by nonlinear regression (GraFit software, Erithacus Software, Horley, UK).

Experiment [3] deals with T2, CYP2C9 (Homo sapiens, UniProt P11712).
T2 construct: purchased Gentest Corporation, Woburn, MA (Supersomes); host or cells: baculovirus-insect cells
The experiment can be described thus: Interaction with Cytochrome P450 isoenzymes: CYP2C9. The following applies: Supersomes expressing human CYP2C9, substrate MFC or DBF, fluorometric; read-out: CYP450 interaction (IC50, uM) 2C9. The class given is in vitro ADME. As to the method: as §1

Experiment [4] addresses T3, CYP2C19 (Homo sapiens, UniProt P33261).
T3 construct: purchased Gentest Corporation, Woburn, MA (Supersomes); host or cells: baculovirus-insect cells
The experiment can be described thus: Interaction with Cytochrome P450 isoenzymes: CYP2C19. It counts as in vitro ADME. To be noted: Supersomes expressing human CYP2C19, substrate CEC, fluorometric; read-out: CYP450 interaction (IC50, uM) 2C19. As to the method:
as §1

The target in experiment [5] is T4, CYP2D6 (Homo sapiens, UniProt P10635).
T4 construct: purchased Gentest Corporation, Woburn, MA (Supersomes); host or cells: baculovirus-insect cells
The experiment can be described thus: Interaction with Cytochrome P450 isoenzymes: CYP2D6. The class given is in vitro ADME. To be noted: Supersomes expressing human CYP2D6, substrate AMMC, fluorometric; read-out: CYP450 interaction (IC50, uM) 2D6. As to the method: as §1

Experiment [6] has as its target T5, CYP3A4 (Homo sapiens, UniProt P08684).
T5 construct: purchased Gentest Corporation, Woburn, MA (Supersomes); host or cells: baculovirus-insect cells
Briefly: Interaction with Cytochrome P450 isoenzymes: CYP3A4. To be noted: Supersomes expressing human CYP3A4, substrate BFC, fluorometric; read-out: CYP450 interaction (IC50, uM) 3A4. The class given is in vitro ADME. As to the method: as §1

Where [7] appears, read: radioligand [3H]-AcRYYRWK-NH2, 37°C, 120 min, read-out: ORL-1 Binding affinity (Ki).

Structures are written as SMILES. pKi: −log10 of the molar value. Read-outs that look alike come from different tables or passages of the source.

T5 sequence (P08684 whole entry): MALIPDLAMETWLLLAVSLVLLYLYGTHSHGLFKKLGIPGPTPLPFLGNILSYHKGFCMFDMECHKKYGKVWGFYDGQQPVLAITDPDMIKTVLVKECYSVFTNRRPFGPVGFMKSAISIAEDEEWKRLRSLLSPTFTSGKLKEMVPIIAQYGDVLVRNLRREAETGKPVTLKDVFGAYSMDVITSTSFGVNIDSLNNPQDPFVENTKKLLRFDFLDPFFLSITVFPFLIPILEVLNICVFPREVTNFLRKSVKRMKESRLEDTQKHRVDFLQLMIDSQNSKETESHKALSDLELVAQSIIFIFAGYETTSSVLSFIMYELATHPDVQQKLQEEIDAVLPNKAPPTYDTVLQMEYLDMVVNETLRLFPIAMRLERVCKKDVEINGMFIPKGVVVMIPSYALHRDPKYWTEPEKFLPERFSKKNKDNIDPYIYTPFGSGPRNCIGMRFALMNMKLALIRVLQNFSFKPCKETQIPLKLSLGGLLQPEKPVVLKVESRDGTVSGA
T3 sequence (P33261 whole entry): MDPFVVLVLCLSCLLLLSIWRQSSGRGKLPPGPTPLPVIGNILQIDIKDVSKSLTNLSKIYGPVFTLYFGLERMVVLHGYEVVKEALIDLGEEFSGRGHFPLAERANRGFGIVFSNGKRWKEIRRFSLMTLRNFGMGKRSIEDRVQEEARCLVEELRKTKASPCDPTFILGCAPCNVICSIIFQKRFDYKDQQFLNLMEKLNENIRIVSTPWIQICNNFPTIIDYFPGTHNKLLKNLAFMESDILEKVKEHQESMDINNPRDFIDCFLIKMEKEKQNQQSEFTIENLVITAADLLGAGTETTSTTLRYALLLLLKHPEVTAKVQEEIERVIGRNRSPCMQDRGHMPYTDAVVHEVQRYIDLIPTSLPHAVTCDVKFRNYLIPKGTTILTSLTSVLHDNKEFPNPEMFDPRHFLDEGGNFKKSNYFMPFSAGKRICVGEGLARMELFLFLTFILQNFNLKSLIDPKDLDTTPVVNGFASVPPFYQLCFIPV
T4 sequence (P10635 whole entry): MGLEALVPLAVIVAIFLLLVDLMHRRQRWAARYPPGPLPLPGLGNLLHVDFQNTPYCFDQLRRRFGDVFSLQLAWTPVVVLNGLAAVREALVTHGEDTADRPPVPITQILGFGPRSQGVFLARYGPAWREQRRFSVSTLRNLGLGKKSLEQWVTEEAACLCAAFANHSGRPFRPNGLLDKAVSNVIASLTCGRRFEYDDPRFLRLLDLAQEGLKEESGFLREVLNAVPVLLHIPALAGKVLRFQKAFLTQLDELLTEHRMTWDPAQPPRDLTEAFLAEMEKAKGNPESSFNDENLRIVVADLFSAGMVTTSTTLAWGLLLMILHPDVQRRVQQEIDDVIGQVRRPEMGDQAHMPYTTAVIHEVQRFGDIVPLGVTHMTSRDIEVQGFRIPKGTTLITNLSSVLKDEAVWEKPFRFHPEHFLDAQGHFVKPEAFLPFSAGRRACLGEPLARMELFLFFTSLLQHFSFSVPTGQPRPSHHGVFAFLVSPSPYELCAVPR
ORL-1 receptor, sequence (P41146 whole entry): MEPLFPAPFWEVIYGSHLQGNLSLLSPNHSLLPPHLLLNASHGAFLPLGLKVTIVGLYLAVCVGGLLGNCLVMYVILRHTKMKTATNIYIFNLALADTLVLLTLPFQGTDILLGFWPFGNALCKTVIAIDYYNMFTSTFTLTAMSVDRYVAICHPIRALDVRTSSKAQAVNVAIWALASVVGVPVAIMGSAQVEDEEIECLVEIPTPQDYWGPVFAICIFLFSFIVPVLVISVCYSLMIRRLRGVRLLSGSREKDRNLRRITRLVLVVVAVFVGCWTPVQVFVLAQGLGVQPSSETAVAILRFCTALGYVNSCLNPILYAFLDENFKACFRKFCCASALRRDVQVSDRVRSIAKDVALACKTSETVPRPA
T2 sequence (P11712 whole entry): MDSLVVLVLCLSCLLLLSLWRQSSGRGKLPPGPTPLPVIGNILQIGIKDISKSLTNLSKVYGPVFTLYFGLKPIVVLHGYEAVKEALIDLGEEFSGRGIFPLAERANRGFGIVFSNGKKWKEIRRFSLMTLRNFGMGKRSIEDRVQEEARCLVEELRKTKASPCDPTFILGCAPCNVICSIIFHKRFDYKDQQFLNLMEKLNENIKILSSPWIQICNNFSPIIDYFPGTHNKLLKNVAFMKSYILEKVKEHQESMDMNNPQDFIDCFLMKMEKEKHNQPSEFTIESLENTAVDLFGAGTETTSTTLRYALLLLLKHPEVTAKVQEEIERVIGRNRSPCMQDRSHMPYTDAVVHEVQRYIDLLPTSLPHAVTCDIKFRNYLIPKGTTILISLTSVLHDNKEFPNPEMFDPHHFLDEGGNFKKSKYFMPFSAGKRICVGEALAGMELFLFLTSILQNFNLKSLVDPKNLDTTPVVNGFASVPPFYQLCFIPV

Take `O=C(c1[nH]c2ccccc2c1CN1CCC(c2c(F)cccc2F)CC1)N1CCN(CCOCCO)CC1` [Example 6, {3-[4-(2,6-Difluoro-phenyl)-piperidin-1-ylmethyl]-1H-indol-2-yl}-{4-[2-(2-hydroxy-ethoxy)-ethyl]-piperazin-1-yl}-methanone]: in experiment [1] (setting [7]), the pKi – broadly, −log10 of the Ki, conventionally taken in molar units – was 7.47. Also, the half-maximal inhibitory concentration (IC50) (in general, the midpoint of a concentration-inhibition curve) is greater than 100 µM in experiment [2]; greater than 100 µM in experiment [3]; greater than 100 µM in experiment [4]; 5.1 µM in experiment [5]; 98.2 µM in experiment [6].

For `NC(=O)Cn1c(C(=O)N2CCOCC2)c(CN2CCC(c3c(F)cccc3Cl)CC2)c2ccccc21` [Example 7, 2-[3-[4-(2-Chloro-6-fluoro-phenyl)-piperidin-1-ylmethyl]-2-(morpholine-4-carbonyl)-indol-1-yl]-acetamide], in experiment [1] (setting [7]), the pKi is 8.32. Also, the IC50 in experiment [2] is greater than 100 µM; in experiment [3] it was 20.2 µM; in experiment [4] it was 25.1 µM; in experiment [5], 16.8 µM; in experiment [6], 13.3 µM.

Consider `CN1CCN(C(=O)Cn2c(-c3ccccc3)c(CN3CCC(c4c(F)cccc4F)CC3)c3ccccc32)CC1` [Example 15, 2-{3-[4-(2,6-Difluoro-phenyl)-piperidin-1-ylmethyl]-2-phenyl-indol-1-yl}-1-(4-methyl-piperazin-1-yl)-ethanone], for which the pKi in experiment [1] (setting [7]) is 8.09. Besides, the IC50 was greater than 100 µM in experiment [2]; 74.4 µM in experiment [3]; 38.3 µM in experiment [4]; 34.7 µM in experiment [5]; 6.2 µM in experiment [6].

`Cc1c(CN2CCC(c3c(F)cccc3Cl)CC2)c2ccccc2n1CC(=O)NC1CCN(C)CC1` [Example 11, 2-{3-[4-(2-Chloro-6-fluoro-phenyl)-piperidin-1-ylmethyl]-2-methyl-indol-1-yl}-N-(1-methyl-piperidin-4-yl)-acetamide] showed a negative logarithm of the Ki (pKi) in experiment [1] of 8.26. Further, the IC50 is greater than 100 µM in experiment [2]; greater than 100 µM in experiment [3]; 47.4 µM in experiment [4]; 20.7 µM in experiment [5]; 9.6 µM in experiment [6].

The compound `O=C(Cn1c(-c2ccccc2)c(CN2CCC(c3c(F)cccc3F)CC2)c2ccccc21)N1CCOCC1` [Example 13, 2-{3-[4-(2,6-Difluoro-phenyl)-piperidin-1-ylmethyl]-2-phenyl-indol-1-yl}-l-morpholin-4-yl-ethanone] had a negative-log Ki (pKi) in experiment [1] of 7.74. Also, the IC50 was greater than 100 µM in experiment [2]; 98.6 µM in experiment [3]; 62.6 µM in experiment [4]; 94.6 µM in experiment [5]; 38.1 µM in experiment [6].

As for `NC(=O)Cn1c(C(=O)N2CCOCC2)c(CN2CCC(c3c(F)cccc3F)CC2)c2ccccc21` [Example 8, 2-[3-[4-(2,6-Difluoro-phenyl)-piperidin-1-ylmethyl]-2-(morpholine-4-carbonyl)-indol-1-yl]-acetamide], the IC50 came to 86 µM in experiment [2]; 31.2 µM in experiment [3]; 70.1 µM in experiment [4]; 6.2 µM in experiment [5]; 25.6 µM in experiment [6].

Turning to `O=C(Cn1c(-c2ccccc2)c(CN2CCC(c3c(F)cccc3Cl)CC2)c2ccccc21)N1CCOCC1` [Example 12, 2-{3-[4-(2-Chloro-6-fluoro-phenyl)-piperidin-1-ylmethyl]-2-phenyl-indol-1-y}-1-morpholin-4-yl-ethanone], in experiment [1] (setting [7]), the negative-log Ki (pKi) was 8.55. Further, the IC50 in experiment [2] is greater than 100 µM; in experiment [3] it was greater than 100 µM; in experiment [4], greater than 100 µM; in experiment [5], 36.6 µM; in experiment [6], 18.2 µM.

In the case of `Fc1cccc(F)c1C1CCN(Cc2c(-c3ccccc3)[nH]c3ccccc23)CC1` [53 (W02005005411), reference compound], the 50% inhibitory concentration (IC50) is 11.8 µM in experiment [2]; 10.7 µM in experiment [3]; 17.4 µM in experiment [4]; less than 0.1 µM in experiment [5]; 13 µM in experiment [6].

As to `CC(=O)N(C)C1CCN(C(=O)c2[nH]c3ccccc3c2CN2CCC(c3c(F)cccc3Cl)CC2)C1` (stereo not shown) [Example 3, N-(1-{3-[4-(2-Chloro-6-fluoro-phenyl)-piperidin-1-ylmethyl]-1 H-indole-2-carbonyl}-pyrrolidin-3-yl)-N-methyl-acetamide], the pKi in experiment [1] (setting [7]) is 8.38. The IC50 is greater than 100 µM in experiment [2]; 25.9 µM in experiment [3]; 47.5 µM in experiment [4]; 8.6 µM in experiment [5]; 54.7 µM in experiment [6].
